Source: patent EP0214862A2, “Anti-tumour platinum complexes, their preparation and their use” (priority 1985, dated 1987)

Key:
L1210 cells = assay: Anti-tumour activity against L1210 leukemia inoculated intraperitoneally in mice (Experiment 1); type: in vivo; settings: L1210, CDF1 mice
Method: In the following experiments, the test animals used were 8 to 9 week old female mice of the CDF1 strain, each weighing 20-25 g.
(§1) CDF1 mice were inoculated intraperitoneally with L1210 cells ([…]). […] Each drug was injected intraperitoneally on days 1 and 4 following tumour implantation. The number of mice in each test group was 6.
(§2) The increase in life span (ILS) was calculated as follows: • ILS% = [(St/Su) - 1] x 100 • in which: • St = weighted median number of days survival of treated mice; and • Su = weighted median number of days survival of untreated mice.

[1] = tested on: cisplatin-resistant L1210/CDDP cells; assay: Anti-tumour activity against cisplatin-resistant L1210/CDDP leukemia in mice (Experiment 2); type: in vivo
Excerpt: (§3) In the following experiments, the test animals used were 8 to 9 week old female mice of the CDF1 strain, each weighing 20-25 g. The standard L1210 leukemia cells were supplied by Dr. T. Yamamoto of the Institute of Medical Science, University of Tokyo, Japan, whilst the cisplatin-resistant L1210 cell line (L1210/CDDP) was supplied by Dr. T. Tashiro of the Cancer Chemotherapy Centre, Japanese Foundation for Cancer Research, Tokyo, Japan.
as §1, §2
The procedures described in Experiment 1 were repeated exactly, except that the tumour cells were cisplatin-resistant L1210/CDDP cells.

[2] = tested on: cisplatin-resistant L1210 cell line (L1210/CDDP); assay: In vitro sensitivity of the cisplatin-resistant cell line versus parent L1210; type: cell-based, mouse; settings: L1210/CDDP relative to the parent L1210 cell line
Excerpt: as §3

[3] = Dose 5 mg/kg intraperitoneally on days 1 and 4
[4] = Dose 10 mg/kg intraperitoneally on days 1 and 4
[5] = Dose 20 mg/kg intraperitoneally on days 1 and 4
[6] = Dose 40 mg/kg intraperitoneally on days 1 and 4
[7] = Dose 80 mg/kg intraperitoneally on days 1 and 4
[8] = Dose 30 mg/kg intraperitoneally on days 1 and 4, CDF1 mice
[9] = Dose 60 mg/kg intraperitoneally on days 1 and 4, CDF1 mice
[10] = Dose 0.625 mg/kg intraperitoneally on days 1 and 4
[11] = Dose 1.25 mg/kg intraperitoneally on days 1 and 4
[12] = Dose 2.5 mg/kg intraperitoneally on days 1 and 4
[13] = Dose 2.5 mg/kg intraperitoneally on days 1 and 4, CDF1 mice
[14] = Dose 5 mg/kg intraperitoneally on days 1 and 4, CDF1 mice

carboplatin
ILS (Increase in life span) (L1210 cells; [3]): 7% | Med.S.T. (Median survival time) (L1210 cells; [3]): 9.0 days | Survivors on day 42 (L1210 cells; [3]): 0/6 | Wt. Change (Change in body weight from day 1 to day 7) (L1210 cells; [3]): +1.3 g | ILS (Increase in life span) (L1210 cells; [4]): 7% | Med.S.T. (Median survival time) (L1210 cells; [4]): 9.0 days | Survivors on day 42 (L1210 cells; [4]): 0/6 | Wt. Change (Change in body weight from day 1 to day 7) (L1210 cells; [4]): +2.0 g | ILS (Increase in life span) (L1210 cells; [5]): 7% | Med.S.T. (Median survival time) (L1210 cells; [5]): 9.0 days | Survivors on day 42 (L1210 cells; [5]): 0/6 | Wt. Change (Change in body weight from day 1 to day 7) (L1210 cells; [5]): +0.8 g | ILS (Increase in life span) (L1210 cells; [6]): 10% | Med.S.T. (Median survival time) (L1210 cells; [6]): 9.2 days | Survivors on day 42 (L1210 cells; [6]): 0/6 | Wt. Change (Change in body weight from day 1 to day 7) (L1210 cells; [6]): +0.4 g | ILS (Increase in life span) (L1210 cells; [7]): 23% | Med.S.T. (Median survival time) (L1210 cells; [7]): 10.3 days | Survivors on day 42 (L1210 cells; [7]): 0/6 | Wt. Change (Change in body weight from day 1 to day 7) (L1210 cells; [7]): -0.5 g | 30-day survivors [1, 8]: 0/6 | Body weight change from days 1 to 7 [1, 8]: +1.2 | ILS(%) [1, 8]: 9% | Median survival days [1, 8]: 9.9 days | 30-day survivors [1, 9]: 0/6 | Body weight change from days 1 to 7 [1, 9]: -0.6 | ILS(%) [1, 9]: 8% | Median survival days [1, 9]: 9.8 days

N.N.[Cl][Pt][Cl] [cisplatin]
ILS (Increase in life span) (L1210 cells; [10]): 8% | Med.S.T. (Median survival time) (L1210 cells; [10]): 9.1 days | Survivors on day 42 (L1210 cells; [10]): 0/6 | Wt. Change (Change in body weight from day 1 to day 7) (L1210 cells; [10]): +1.6 g | ILS (Increase in life span) (L1210 cells; [11]): 15% | Med.S.T. (Median survival time) (L1210 cells; [11]): 9.7 days | Survivors on day 42 (L1210 cells; [11]): 0/6 | Wt. Change (Change in body weight from day 1 to day 7) (L1210 cells; [11]): +2.5 g | ILS (Increase in life span) (L1210 cells; [12]): 58% | Med.S.T. (Median survival time) (L1210 cells; [12]): 13.3 days | Survivors on day 42 (L1210 cells; [12]): 0/6 | Wt. Change (Change in body weight from day 1 to day 7) (L1210 cells; [12]): +1.7 g | ILS (Increase in life span) (L1210 cells; [3]): 364% | Med.S.T. (Median survival time) (L1210 cells; [3]): 39.0 days | Survivors on day 42 (L1210 cells; [3]): 2/6 | Wt. Change (Change in body weight from day 1 to day 7) (L1210 cells; [3]): -3.5 g | ILS (Increase in life span) (L1210 cells; [4]): 23% | Med.S.T. (Median survival time) (L1210 cells; [4]): 10.3 days | Survivors on day 42 (L1210 cells; [4]): 0/6 | Wt. Change (Change in body weight from day 1 to day 7) (L1210 cells; [4]): -5.5 g | 30-day survivors [1, 13]: 0/5 | Body weight change from days 1 to 7 [1, 13]: +1.0 | ILS(%) [1, 13]: 2% | Median survival days [1, 13]: 9.3 days | 30-day survivors [1, 14]: 0/6 | Body weight change from days 1 to 7 [1, 14]: -1.9 | ILS(%) [1, 14]: 9% | Median survival days [1, 14]: 9.9 days | degree of cisplatin resistance in terms of in vitro sensitivity [2]: 40 fold

C1CCC2[NH][Pt-2]3([NH]C2C1)[O]C1=[N+](CCN1)[Pt-2]1([NH2+]C2CCCCC2[NH2+]1)[OH+]3 (stereo not drawn) [Example 1, Hydroxo(ethyleneurea-N,O)-bis(cis-(trans-(ℓ)-1,2-diaminocyclohexane)platinum (II)] nitrate]
Wt. Change (Change in body weight from day 1 to day 7) (L1210 cells; [3]): +2.6 g | Wt. Change (Change in body weight from day 1 to day 7) (L1210 cells; [4]): +2.8 g | Wt. Change (Change in body weight from day 1 to day 7) (L1210 cells; [5]): +2.2 g | Wt. Change (Change in body weight from day 1 to day 7) (L1210 cells; [6]): +0.4 g | Wt. Change (Change in body weight from day 1 to day 7) (L1210 cells; [7]): +0.2 g | Wt. Change (Change in body weight from day 1 to day 7) (L1210 cells; Dose 160 mg/kg intraperitoneally on days 1 and 4): -3.0 g | toxic (number of mice) (L1210 cells; Dose 240 mg/kg intraperitoneally on days 1 and 4): - (2/6, toxic) | toxic (number of mice) (L1210 cells; Dose 320 mg/kg intraperitoneally on days 1 and 4): - (5/6, toxic) | Body weight change from days 1 to 7 [1, 14]: +2.4 | Body weight change from days 1 to 7 ([1]; Dose 10 mg/kg intraperitoneally on days 1 and 4, CDF1 mice): +2.3 | Body weight change from days 1 to 7 ([1]; Dose 20 mg/kg intraperitoneally on days 1 and 4, CDF1 mice): +2.2 | Body weight change from days 1 to 7 ([1]; Dose 40 mg/kg intraperitoneally on days 1 and 4, CDF1 mice): -0.3 | Body weight change from days 1 to 7 ([1]; Dose 80 mg/kg intraperitoneally on days 1 and 4, CDF1 mice): -0.5 | Body weight change from days 1 to 7 ([1]; Dose 160 mg/kg intraperitoneally on days 1 and 4, CDF1 mice): -1.8
